# Measured values: BindingDB's records for patent US20250313563 (The Broad Institute, 2025)
# pIC50: −log10 of the molar value. “And” between values parts separate entries of the source, which are not always exact repeats. Equal values may be shown once.
# What was measured:
# [1] = biological target: Glycogen synthase kinase-3 beta (Homo sapiens, UniProt P49841); test: TR-FRET Assay
# Outline: (§1)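 Enzyme and test compound were first incubated together for 30 minutes in assay buffer. The kinase reaction followed and was stopped with EDTA. The pSer641 signal was read by time-resolved FRET.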
# [2] = biological target: Glycogen synthase kinase-3 alpha (Homo sapiens, UniProt P49840); test: TR-FRET Assay
# Sequence of Glycogen synthase kinase-3 alpha (P49840 whole entry): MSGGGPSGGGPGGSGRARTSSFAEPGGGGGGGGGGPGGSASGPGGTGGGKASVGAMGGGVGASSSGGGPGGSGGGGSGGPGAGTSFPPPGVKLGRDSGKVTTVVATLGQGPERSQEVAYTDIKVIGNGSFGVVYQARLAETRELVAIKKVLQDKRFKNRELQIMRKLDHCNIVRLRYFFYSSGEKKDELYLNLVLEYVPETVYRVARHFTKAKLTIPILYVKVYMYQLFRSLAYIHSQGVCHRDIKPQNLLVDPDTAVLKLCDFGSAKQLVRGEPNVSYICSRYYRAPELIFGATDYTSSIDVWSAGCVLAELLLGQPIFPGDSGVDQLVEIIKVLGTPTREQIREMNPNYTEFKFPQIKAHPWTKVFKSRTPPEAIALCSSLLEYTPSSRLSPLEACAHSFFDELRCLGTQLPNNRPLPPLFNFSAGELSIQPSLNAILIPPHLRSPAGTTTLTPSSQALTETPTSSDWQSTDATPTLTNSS
# Outline: as §1
# Sequence of Glycogen synthase kinase-3 beta (P49841 whole entry): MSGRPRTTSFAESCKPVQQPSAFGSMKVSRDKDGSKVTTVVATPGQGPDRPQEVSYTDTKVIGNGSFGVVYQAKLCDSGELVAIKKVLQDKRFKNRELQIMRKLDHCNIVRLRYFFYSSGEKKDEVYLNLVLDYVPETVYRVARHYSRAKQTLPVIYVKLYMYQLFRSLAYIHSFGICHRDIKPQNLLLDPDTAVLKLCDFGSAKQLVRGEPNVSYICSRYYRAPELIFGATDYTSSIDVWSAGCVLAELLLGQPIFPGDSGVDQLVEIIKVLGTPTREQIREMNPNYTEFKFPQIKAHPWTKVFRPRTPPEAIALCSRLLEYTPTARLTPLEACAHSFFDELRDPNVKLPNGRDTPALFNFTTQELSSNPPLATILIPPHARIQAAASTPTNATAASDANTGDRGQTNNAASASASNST
pIC50 [1],pIC50 [2],Compound
> 7.00,> 7.00,"COc1ccc(S(=O)(=O)N2CCC3(CC2)C2=C(N=NC2)NC2=C3C(=O)CC(C)(C)C2)cc1 [US20250313563, Compound 917143]"
> 7.00,> 7.00,"CCC1(c2cccc(S(=O)(=O)CC3CC3)c2)C2=C(CC(C)(C)NC2=O)NC2=C1C(C(F)(F)F)N=N2 (centres undefined) [US20250313563, Compound 948179]"
6.00 to 7.00,> 7.00,"CC[C@]1(c2cccc(-c3cc(C)nn3C)c2)C2=CN=NC2NC2=C1C(=O)CC(C)(C)[C@@H]2F (some centres undefined) [US20250313563, Compound 947655]"
6.00 to 7.00,> 7.00,"CCC1(c2cccc(Br)c2)C2=CN=NC2NC2=C1C(=O)C(F)C(C)(C)C2 (centres undefined) [US20250313563, Compound 826764]"
6.00 to 7.00,> 7.00,"CC1CCCC1C(=O)N1CC2(C1)CC1(CO2)C2=C(N=NC2)NC2=C1C(=O)CC(C)(C)C2 (centres undefined) [US20250313563, Compound 947274]"
< 5.30,5.30 to 6.00,"CC[C@]1(c2cccc(-c3cn(C)nc3C(C)C)c2)C2=CN=NC2NC2=C1C(=O)NC(C)(C)C2 (some centres undefined) [US20250313563, Compound 949106]"
> 7.00,> 7.00,"COc1cc(S(=O)(=O)N2CCC3(CC2)C2=C(N=NC2)NC2=C3C(=O)CC(C)(C)C2)ccc1Cl [US20250313563, Compound 945669]"
6.00 to 7.00,> 7.00,"CC[C@]1(c2cccc(-c3ccnc(C)c3)c2)C2=C(N=NC2)NC2=C1C(=O)[C@H]1CC[C@@H]2C1 [US20250313563, Compound 943917]"
6.00 to 7.00,> 7.00,"CC[C@]1(c2cccc(-c3ccnc(C)c3)c2)C2=CN=NC2NC2=C1C(=O)N[C@@]1(CCOC1)C2 (some centres undefined) [US20250313563, Compound 948140]"
> 7.00 and 6.00 to 7.00,> 7.00,"CC[C@]1(c2cccc(N(C)c3ncccn3)c2)C2=CN=NC2NC2=C1C(=O)CC(C)(C)C2 (some centres undefined) [US20250313563, Compound 911980]"
> 7.00,> 7.00,"CCC1(c2cccc(S(=O)(=O)C(C)C)c2)C2=CN=NC2NC2=C1C(=O)NC(C)(C)C2 (centres undefined) [US20250313563, Compound 945464]"
> 7.00,> 7.00,"CC1(C)CC(=O)C2=C(C1)NC1=C(CN=N1)C21CN(S(=O)(=O)Cc2ccccc2)C1 [US20250313563, Compound 943543]"
> 7.00,> 7.00,"CCC1(c2cccc(-c3c(C)nn(C)c3C)c2)C2=C(CC(C)(C)NC2=O)NC2N=NC(C(F)(F)F)=C21 (centres undefined) [US20250313563, Compound 947568]"
5.30 to 6.00,6.00 to 7.00,"CC[C@@]1(c2cccc(-c3ccncc3C)c2)C2=CN=NC2NC2=C1C(=O)CC(C)(C)C2 (some centres undefined) [US20250313563, Compound 943991]"
> 7.00,> 7.00,"CCC1(c2cccc(S(=O)(=O)C3CCCCC3)c2)C2=CN=NC2NC2=C1C(=O)CC(C)(C)C2 (centres undefined) [US20250313563, Compound 918273]"
5.30 to 6.00,6.00 to 7.00,"CC[C@]1(c2cccc(C(F)(F)F)c2)C2=C(N=NC2)NC2=C1C(=O)N[C@H]2C [US20250313563, Compound 945379]"
6.00 to 7.00 and < 5.30,> 7.00 and 5.30 to 6.00,"CC[C@@]1(c2cccc(-c3ccnc(C)c3)c2)C2=CN=NC2NC2=C1C(=O)[C@@H](F)C(C)(C)C2 (some centres undefined) [US20250313563, Compound 945475]"
5.30 to 6.00,6.00 to 7.00,"Cc1cnn(C)c1S(=O)(=O)N1CCC2(CC1)C1=C(N=NC1)NC1=C2C(=O)CC(C)(C)C1 [US20250313563, Compound 945658]"
< 5.30,< 5.30,"CC[C@]1(c2cccc(-c3cc(OC)nc4ccccc34)c2)C2=CN=NC2NC2=C1C(=O)NC(C)(C)C2 (some centres undefined) [US20250313563, Compound 948647]"
5.30 to 6.00,6.00 to 7.00,"CC[C@@]1(c2cccc(-c3cc(C(C)C)nn3C)c2)C2=CN=NC2NC2=C1C(=O)NC(C)(C)C2 (some centres undefined) [US20250313563, Compound 951842]"
6.00 to 7.00,> 7.00,"CCC1(c2cccc(-c3ccnc(N(C)C)c3)c2)C2=C(CC(C)(C)CC2=O)NC2N=NC(C)=C21 (centres undefined) [US20250313563, Compound 883990]"
6.00 to 7.00,6.00 to 7.00,"C[C@H]1CCC[C@]2(C1)C1=C(N=NC1)NC1=C2C(=O)CC(C)(C)C1 [US20250313563, Compound 893319]"
> 7.00,> 7.00,"CC1(C)CC(=O)C2=C(C1)NC1=C(CN=N1)C21CCN(S(=O)(=O)c2cccc3ncccc23)CC1 [US20250313563, Compound 947469]"
< 5.30,< 5.30,"CC[C@@]1(c2cc(-c3cnn(C)c3)ccc2F)C2=CN=NC2NC2=C1C(=O)CC(C)(C)C2 (some centres undefined) [US20250313563, Compound 909223]"
> 7.00,> 7.00,"CC1(C)CC(=O)C2=C(C1)NC1=C(CN=N1)[C@]21C[C@H](n2cccn2)C1 [US20250313563, Compound 884005]"
< 5.30,< 5.30,"CC[C@@]1(c2cccc(N(C)C(C)=O)c2)C2=CN=NC2NC2=C1C(=O)CC(C)(C)C2 (some centres undefined) [US20250313563, Compound 810359]"

pIC50 [1],pIC50 [2],Compound
< 5.30,< 5.30,"CC[C@@]1(c2cccc(-c3cc(C)nn3C)c2)C2=CN=NC2NC2=C1C(=O)NC(C)(C)C2 (some centres undefined) [US20250313563, Compound 943967]"
6.00 to 7.00,> 7.00,"CCC1(c2cccc(-c3ccnc(C)c3F)c2)C2=C(CC(C)(C)NC2=O)NC2N=NC(C)=C21 (centres undefined) [US20250313563, Compound 947402]"
6.00 to 7.00,> 7.00,"CC1(C)CC(=O)C2=C(C1)NC1=C(CN=N1)C21CCN(S(=O)(=O)c2cc(Cl)ccc2Cl)CC1 [US20250313563, Compound 948122]"
> 7.00,> 7.00,"COc1cccc(S(=O)(=O)N2CC[C@]3(C2)C2=C(N=NC2)NC2=C3C(=O)CC(C)(C)C2)c1 [US20250313563, Compound 951790]"
5.30 to 6.00,6.00 to 7.00,"CCC1(c2cccc(C(F)(F)F)c2)C2=CN=NC2NC2=C1C(=O)N(c1cc(C)n(C)n1)CC2 (centres undefined) [US20250313563, Compound 950608]"
6.00 to 7.00,6.00 to 7.00,"CC1(C)CC(=O)C2=C(C1)NC1=C(CN=N1)[C@]21CCN(S(=O)(=O)c2cccc(F)c2)C1 [US20250313563, Compound 951861]"
6.00 to 7.00,> 7.00,"CC(=O)N1CC[C@]2(C1)C[C@@]1(CO2)C2=C(N=NC2)NC2=C1C(=O)CC(C)(C)C2 [US20250313563, Compound 948319]"
6.00 to 7.00,> 7.00,"CC[C@@]1(c2cccc(-c3ccnc(CCO)c3)c2)C2=CN=NC2NC2=C1C(=O)CC(C)(C)C2 (some centres undefined) [US20250313563, Compound 947810]"
5.30 to 6.00,6.00 to 7.00,"CCC1(c2cccc(C(F)(F)F)c2)C2=C(N=NC2)NC2=C1C(=O)N(C)C2 (centres undefined) [US20250313563, Compound 917294]"
< 5.30,< 5.30,"CC1(C)CC(=O)C2=C(C1)NC1=C(CN=N1)C21CCCNCC1 (centres undefined) [US20250313563, Compound 889571]"
6.00 to 7.00,6.00 to 7.00,"CC1(C)CC(=O)C2=C(C1)NC1=C(CN=N1)[C@@]21CCC[C@@H](C#N)C1 [US20250313563, Compound 945906]"
> 7.00 and 6.00 to 7.00,> 7.00,"CC1(C)CC(=O)C2=C(C1)NC1=C(CN=N1)C21CCN(S(=O)(=O)C2CCOCC2)CC1 [US20250313563, Compound 913127]"
6.00 to 7.00,> 7.00,"CCC1(c2cccc(Oc3ncccn3)c2)C2=C(CC(C)(C)NC2=O)NC2N=NC(F)=C21 (centres undefined) [US20250313563, Compound 950615]"
6.00 to 7.00,> 7.00,"C[C@H]1C[C@@]2(CCN1S(=O)(=O)c1ccn(C)n1)C1=C(N=NC1)NC1=C2C(=O)CC(C)(C)C1 [US20250313563, Compound 926832]"
5.30 to 6.00,6.00 to 7.00,"CC1(C)CC(=O)C2=C(C1)NC1=C(CN=N1)C21CCN(c2ccncn2)CC1 [US20250313563, Compound 874529]"
6.00 to 7.00,> 7.00,"CC[C@]1(c2cccc(-c3ccnc(C)c3)c2)C2=CN=NC2NC2=C1C(=O)N[C@@H](C)C2 (some centres undefined) [US20250313563, Compound 932658]"
> 7.00,> 7.00,"Cn1cc(S(=O)(=O)N2CC[C@@]3(C2)C2=C(N=NC2)NC2=C3C(=O)CC(C)(C)C2)cn1 [US20250313563, Compound 943483]"
> 7.00,> 7.00,"CC1(C)CC2=C(C(=O)C1F)[C@]1(CC[C@H](C(F)(F)F)CC1)C1=C(N=NC1)N2 (some centres undefined) [US20250313563, Compound 917133]"
< 5.30,6.00 to 7.00,"CCC1(c2cccc(C(F)(F)F)c2)C2=CN=NC2NC2=C1C(=O)N(Cc1ccccc1)CC2 (centres undefined) [US20250313563, Compound 897749]"
> 7.00,> 7.00,"CCC1(c2cccc(-c3ccncc3F)c2)C2=CN=NC2NC2=C1C(=O)CC(C)(C)C2 (centres undefined) [US20250313563, Compound 883986]"
6.00 to 7.00,> 7.00,"CC[C@]1(c2cccc(C(F)(F)F)c2)C2=CN=NC2NC2=C1C(=O)N(c1cnsc1)CC2 (some centres undefined) [US20250313563, Compound 951733]"
6.00 to 7.00,> 7.00,"CCC1(c2cccc(-c3cn(C)nc3C)c2)C2=CN=NC2NC2=C1C(=O)NC1(CCS(=O)(=O)CC1)C2 (centres undefined) [US20250313563, Compound 950813]"
> 7.00,6.00 to 7.00,"CC(C)(C)CC1=C2C(N=N1)NC1=C(C(=O)CC(C)(C)C1)C21CCc2ccc(F)cc21 (centres undefined) [US20250313563, Compound 784440]"
> 7.00,> 7.00,"CC1(C)CC(=O)C2=C(C1)NC1=C(CN=N1)C21CN(S(=O)(=O)c2ccccc2)C1 [US20250313563, Compound 901474]"
6.00 to 7.00,5.30 to 6.00,"CN(C)S(=O)(=O)c1cccc([C@]2(C)C3=C(CC(C)(C)CC3=O)NC3=C2C(CC(C)(C)C)N=N3)c1 (some centres undefined) [US20250313563, Compound 126012]"
5.30 to 6.00,6.00 to 7.00,"CCC1(c2cccc(N(C)c3cnn(C)c3)c2)C2=CN=NC2NC2=C1C(=O)CC(C)(C)C2 (centres undefined) [US20250313563, Compound 885382]"
